Values joined by “and” are separate entries in the source; they are usually repeats but may differ in a detail not shown here. Equal entries are not always repeated.
What follows are compounds tested against T1, soluble guanylate cyclase (human GUCYA3/GUCYB3) overexpressed in CHO cells (Homo sapiens, UniProt Q02108+Q02153) (assay: CHO cellular assay (cGMP production, HTRF)). Conditions: CHO K1 clone 8E10 overexpressing human sGC, Cisbio HTRF, 1 h room temperature, 1 mM IBMX, 20 uM ODQ, minimum quantification limit 0.5 nM.
T1 construct: expressed in transfected cells
T1 sequence (Q02108 1-690 partner): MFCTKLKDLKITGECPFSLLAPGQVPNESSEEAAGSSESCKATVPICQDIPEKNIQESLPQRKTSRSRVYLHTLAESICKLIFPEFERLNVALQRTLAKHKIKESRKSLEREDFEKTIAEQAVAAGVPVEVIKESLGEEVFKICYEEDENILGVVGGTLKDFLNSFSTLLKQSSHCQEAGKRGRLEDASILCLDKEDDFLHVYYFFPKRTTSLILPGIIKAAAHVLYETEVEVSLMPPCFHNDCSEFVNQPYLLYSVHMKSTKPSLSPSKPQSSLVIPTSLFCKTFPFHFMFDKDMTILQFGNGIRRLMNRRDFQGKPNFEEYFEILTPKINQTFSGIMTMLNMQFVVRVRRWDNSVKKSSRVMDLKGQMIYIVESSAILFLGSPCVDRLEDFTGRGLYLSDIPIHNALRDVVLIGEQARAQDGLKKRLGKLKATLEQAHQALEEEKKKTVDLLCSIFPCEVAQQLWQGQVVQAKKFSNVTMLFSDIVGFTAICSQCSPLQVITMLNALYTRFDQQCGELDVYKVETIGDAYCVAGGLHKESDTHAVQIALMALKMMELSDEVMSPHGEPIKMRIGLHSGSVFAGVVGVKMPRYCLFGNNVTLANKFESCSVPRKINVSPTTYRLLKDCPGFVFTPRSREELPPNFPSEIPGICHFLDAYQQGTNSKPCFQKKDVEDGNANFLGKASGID
T1 sequence (Q02153 1-619): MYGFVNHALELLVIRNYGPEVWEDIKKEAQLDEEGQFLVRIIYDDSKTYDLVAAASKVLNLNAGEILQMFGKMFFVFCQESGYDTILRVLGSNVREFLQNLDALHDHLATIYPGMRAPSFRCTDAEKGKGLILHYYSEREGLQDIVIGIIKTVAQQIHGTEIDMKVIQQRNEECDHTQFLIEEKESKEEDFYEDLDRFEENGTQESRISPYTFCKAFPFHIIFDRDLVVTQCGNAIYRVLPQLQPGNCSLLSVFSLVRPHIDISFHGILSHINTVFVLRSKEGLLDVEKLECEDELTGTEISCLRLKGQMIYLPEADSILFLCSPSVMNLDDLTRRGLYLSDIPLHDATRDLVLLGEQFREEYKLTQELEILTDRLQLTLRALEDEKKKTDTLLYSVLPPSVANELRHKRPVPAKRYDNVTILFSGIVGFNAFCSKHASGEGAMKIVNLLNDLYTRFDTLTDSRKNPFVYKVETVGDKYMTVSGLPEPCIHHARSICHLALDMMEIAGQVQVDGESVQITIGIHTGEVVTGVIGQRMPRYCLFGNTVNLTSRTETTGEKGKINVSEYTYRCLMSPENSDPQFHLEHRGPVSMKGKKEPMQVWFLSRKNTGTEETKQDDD
Type: cell-based
Outline: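 Stable CHO K1 clone expressing human GUCYA3/GUCYB3. Compounds applied 1 h at room temperature in HBSS, 0.1% BSA, 1 mM IBMX, 20 uM ODQ, 0.5% DMSO. cGMP measured by HTRF and interpolated from a standard curve; EC50 from 4-parameter sigmoidal fit.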
Compound Cc1cc(C2CCN(C(=O)C3CC(O)C3)CC2)ccc1OCc1ccsc1-c1cccc(-n2ncc(C(=O)O)c2C(F)(F)F)n1 (stereo not drawn) [Example 12-5, 1-(6-(3-((4-(1-(3-Hydroxycyclobutanecarbonyl)piperidin-4-yl)-2-methylphenoxy)methyl)thiophen-2-yl)pyridin-2-yl)-5-(trifluoromethyl)-1H-pyrazole-4-carboxylic acid] has an EC50 of 46 nM. In the case of Cc1cc(C2CCN(C(=O)C3COC3)CC2)ccc1OCc1ccsc1-c1cccc(-n2ncc(C(=O)O)c2C(F)(F)F)n1 [Example 12-7, 1-(6-(3-((2-Methyl-4-(1-(oxetane-3-carbonyl)piperidin-4-yl)phenoxy)methyl)thiophen-2-yl)pyridin-2-yl)-5-(trifluoromethyl)-1H-pyrazole-4-carboxylic acid], the EC50 is reported as 7.5 nM. CCc1cc(OCc2cc(C)sc2-c2cccc(-n3ncc(C(=O)O)c3C)n2)ccc1C1CCN(C(=O)CC2CC2)CC1 [Example 12-8, 1-(6-(3-((4-(1-(2-Cyclopropylacetyl)piperidin-4-yl)-3-ethylphenoxy)methyl)-5-methylthiophen-2-yl)pyridin-2-yl)-5-methyl-1H-pyrazole-4-carboxylic acid] was tested, and the EC50 was 4.4 nM and 1 nM. For CCc1cc(OCc2cc(C)sc2-c2cccc(-n3ncc(C(=O)O)c3C(F)(F)F)n2)ccc1C1CCN(C(=O)C(C)(C)CO)CC1 [Example 12-10, 1-(6-(3-((3-Ethyl-4-(1-(3-hydroxy-2,2-dimethylpropanoyl)piperidin-4-yl)phenoxy)methyl)-5-methylthiophen-2-yl)pyridin-2-yl)-5-(trifluoromethyl)-1H-pyrazole-4-carboxylic acid], the EC50 was 33 nM. CCc1cc(OCc2cc(C)sc2-c2cccc(-n3ncc(C(=O)O)c3C(F)(F)F)n2)ccc1C1CCN(C(=O)CO)CC1 [Example 12-11, 1-(6-(3-((3-Ethyl-4-(1-(2-hydroxyacetyl)piperidin-4-yl)phenoxy)methyl)-5-methylthiophen-2-yl)pyridin-2-yl)-5-(trifluoromethyl)-1H-pyrazole-4-carboxylic acid] showed an EC50 of 36 nM. For Cc1cc(C2CCN(CC(F)(F)F)CC2)ccc1OCc1ccsc1-c1cccc(-n2ncc(C(=O)O)c2C(F)(F)F)n1 [Example 13, 1-(6-(3-((2-Methyl-4-(1-(2,2,2-trifluoroethyl)piperidin-4-yl)phenoxy)methyl)thiophen-2-yl)pyridin-2-yl)-5-(trifluoromethyl)-1H-pyrazole-4-carboxylic acid], the EC50 was 1 nM. Compound O=C(O)c1cnn(-c2cccc(-c3sccc3COc3ccc(C4CCN(CC(F)(F)F)CC4)cc3)n2)c1C(F)(F)F [Example 14-1, 1-(6-(3-((4-(1-(2,2,2-Trifluoroethyl)piperidin-4-yl)phenoxy)methyl)thiophen-2-yl)pyridin-2-yl)-5-(trifluoromethyl)-1H-pyrazole-4-carboxylic acid] has an EC50 of 12 nM. In the case of Cc1cc(C2CCN(CC3CC3)CC2)ccc1OCc1ccsc1-c1cccc(-n2ncc(C(=O)O)c2C(F)(F)F)n1 [Example 14-2, 1-(6-(3-((4-(1-(Cyclopropylmethyl)piperidin-4-yl)-2-methylphenoxy)methyl)thiophen-2-yl)pyridin-2-yl)-5-(trifluoromethyl)-1H-pyrazole-4-carboxylic acid], the EC50 is reported as 430 nM. Work on Cc1cc(C2CCN(C(=O)C3CC3)CC2)ccc1NCc1ccsc1-c1cccc(-n2ncc(C(=O)O)c2C)n1 [Example 15, 1-(6-(3-(((4-(1-(Cyclopropanecarbonyl)piperidin-4-yl)-2-methylphenyl)amino)methyl)thiophen-2-yl)pyridin-2-yl)-5-methyl-1H-pyrazole-4-carboxylic acid] yielded an EC50 of at most 0.5 nM. Compound Cc1cc(C2CCN(C(=O)C3CC3)CC2)ccc1NCc1ccsc1-c1cccc(-n2ncc(C(=O)O)c2C(F)(F)F)n1 [Example 16-1, 1-(6-(3-(((4-(1-(Cyclopropanecarbonyl)piperidin-4-yl)-2-methylphenyl)amino)methyl)thiophen-2-yl)pyridin-2-yl)-5-(trifluoromethyl)-1H-pyrazole-4-carboxylic acid] has an EC50 of 8.8 nM. Cc1cc(CNc2ccc(C3CCN(C(=O)C4CC4)CC3)cc2C)c(-c2cccc(-n3ncc(C(=O)O)c3C)n2)s1 [Example 16-2, 1-(6-(3-(((4-(1-(Cyclopropanecarbonyl)piperidin-4-yl)-2-methylphenyl)amino)methyl)-5-methylthiophen-2-yl)pyridin-2-yl)-5-methyl-1H-pyrazole-4-carboxylic acid] was tested, and the EC50 was 1 nM. Work on Cc1cc(CNc2ccc(C3CCN(C(=O)C4CC4)CC3)cc2)c(-c2cccc(-n3ncc(C(=O)O)c3C)n2)s1 [Example 16-3, 1-(6-(3-(((4-(1-(Cyclopropanecarbonyl)piperidin-4-yl)phenyl)amino)methyl)-5-methylthiophen-2-yl)pyridin-2-yl)-5-methyl-1H-pyrazole-4-carboxylic acid] yielded an EC50 of at most 0.5 nM. CCc1c(C)sc(-c2cccc(-n3ncc(C(=O)O)c3C(F)(F)F)n2)c1COc1ccc(C2CCN(C(=O)C3CC3)CC2)cc1C [Example 17, 1-(6-(3-((4-(1-(Cyclopropanecarbonyl)piperidin-4-yl)-2-methylphenoxy)methyl)-4-ethyl-5-methylthiophen-2-yl)pyridin-2-yl)-5-(trifluoromethyl)-1H-pyrazole-4-carboxylic acid] showed an EC50 of 1 nM. Cc1cc(C2CCN(C(=O)C3CC3)CC2)ccc1OCc1c(-c2cccc(-n3ncc(C(=O)O)c3C(F)(F)F)n2)sc(C)c1C(C)C [Example 18-1, 1-(6-(3-((4-(1-(Cyclopropanecarbonyl)piperidin-4-yl)-2-methylphenoxy)methyl)-4-isopropyl-5-methylthiophen-2-yl)pyridin-2-yl)-5-(trifluoromethyl)-1H-pyrazole-4-carboxylic acid] gave an EC50 of 7 nM. With CCc1c(C(=O)O)cnn1-c1cccc(-c2sc(C)cc2COc2ccc(C3CCN(CC(F)(F)F)CC3)cc2C)n1 [Example 18-2, 5-Ethyl-1-(6-(5-methyl-3-((2-methyl-4-(1-(2,2,2-trifluoroethyl)piperidin-4-yl)phenoxy)methyl)thiophen-2-yl)pyridin-2-yl)-1H-pyrazole-4-carboxylic acid] the EC50 was 2 nM. With CCc1c(C(=O)O)cnn1-c1cccc(-c2sc(C)c(C)c2COc2ccc(C3CCN(CC(F)(F)F)CC3)cc2C)n1 [Example 18-3, 1-(6-(4,5-Dimethyl-3-((2-methyl-4-(1-(2,2,2-trifluoroethyl)piperidin-4-yl)phenoxy)methyl)thiophen-2-yl)pyridin-2-yl)-5-ethyl-1H-pyrazole-4-carboxylic acid] the EC50 was 2 nM. Compound CCc1csc(-c2cccc(-n3ncc(C(=O)O)c3C(F)(F)F)n2)c1COc1ccc(C2CCN(C(=O)C3CC3)CC2)cc1C [Example 18-4, 1-(6-(3-((4-(1-(Cyclopropanecarbonyl)piperidin-4-yl)-2-methylphenoxy)methyl)-4-ethylthiophen-2-yl)pyridin-2-yl)-5-(trifluoromethyl)-1H-pyrazole-4-carboxylic acid] has an EC50 of 5.9 nM. Compound Cc1cc(C2CCN(CC(F)(F)F)CC2)ccc1OCc1c(-c2cccc(-n3ncc(C(=O)O)c3C(F)(F)F)n2)sc(C)c1C [Example 18-5, 1-(6-(4,5-Dimethyl-3-((2-methyl-4-(1-(2,2,2-trifluoroethyl)piperidin-4-yl)phenoxy)methyl)thiophen-2-yl)pyridin-2-yl)-5-(trifluoromethyl)-1H-pyrazole-4-carboxylic acid] has an EC50 of 3.5 nM.

Reference: patent US9765067B2, “Thiophen-2-yl-pyridin-2-yl-1H-pyrazole-4-carboxylic acid derivatives and the use thereof as soluble guanylate cyclase activators” (Novartis AG, priority 2014, dated 2017)
